Source: PMC4750701, “Role of Mitochondrial RNA Polymerase in the Toxicity of Nucleotide Inhibitors of Hepatitis C Virus” (Antimicrobial Agents and Chemotherapy, 2016)
Like-named read-outs stand apart in the source and are kept apart here.

Assays:
[1] = test system: human erythroid progenitors (bone marrow cells); experiment: Bone marrow erythroid progenitor colony assay, 14 days; format: cell-based; details: read-out: Mean CC50 ± SD in Bone marrow cells Erythroid
[2] = test system: human myeloid progenitors (bone marrow cells); experiment: Bone marrow myeloid progenitor colony assay, 14 days; format: cell-based; details: read-out: Mean CC50 ± SD in Bone marrow cells Myeloid
[3] = test system: Quiescent PBMCs; experiment: Cytotoxicity in quiescent PBMCs, 5 days; details: read-out: Mean CC50 ± SD in PBMCs Quiescent; 5 days
Protocol: Human peripheral blood mononuclear cells (PBMCs) were isolated from human buffy coats obtained from healthy volunteers (Stanford Blood Bank, Palo Alto, CA) using standard Ficoll separation and stimulated as described elsewhere ([13]) and were tested at both quiescent and stimulated stages. Quiescent PBMCs were stimulated with 10 units per ml of recombinant human interleukin 2 (hIL-2) and 1 μg per ml phytohemagglutinin P (PHA-P) for 48 h prior to drug treatment.
(§2) All cells were cultured at 37°C in a 5% CO2 incubator with 90% humidity unless noted otherwise. […] All cells were treated with the various compounds for 5 days, except for human erythroid and myeloid progenitors, which were treated for 14 days. After the incubation period, cell viability was measured by the addition of CellTiter Glo viability reagents (Promega, Madison, WI). The luminescence signal was quantified on an Envision luminescence plate reader (PerkinElmer, Waltham, MA) after incubation of the reagents and cells for 10 min at room temperature. […] CC50 values were calculated as the average of the results of three or four independent experiments.
Human peripheral blood mononuclear cells (PBMCs) were isolated from human buffy coats
obtained from normal healthy volunteers (Stanford Medical School Blood Center, Palo Alto,
CA). Total PBMCs were isolated from buffy coats using standard Ficoll separation and sterile
cellular isolation techniques performed in a bio-safety cabinet (1). Except where noted, the
procedure was carried out at room temperature. The final PBMCs pellet was resuspended in
Logan, UT), penicillin 100 units/mL and streptomycin 100 µg/mL (Gibco). For quiescent
PBMCs cultures, total cells were seeded in 96-well plates at a density of 1 x 10^6 cells per well, followed by immediate drug treatment. Stimulated PBMCs cultures were set up by seeding the freshly isolated PBMCs in T-175cm2 tissue culture flasks in 100 mL of RPMI containing the same components as the ones used for the quiescent PBMCs but with the addition of 10 units per mL of recombinant human interleukin-2 (hIL-2, Roche, Indianapolis, IN), and 1 µg per mL phytohemagglutinin-P (PHA-P, Sigma-Aldrich, St. Louis, MO) at density of 2  10^6 cells per mL for 48 hours at 37C in a 5% CO2 incubator with 90% humidity, prior to drug treatment.

[4] = test system: Stimulated PBMCs; experiment: Cytotoxicity in stimulated PBMCs, 5 days; details: read-out: Mean CC50 ± SD in PBMCs Stimulated; 5 days
[5] = test system: Primary human hepatocytes; experiment: Cytotoxicity in primary human hepatocytes, 5 days; details: read-out: Mean CC50 ± SD in Hepatic cells (primary); human primary hepatocytes, 5 days
Protocol: Primary human hepatocytes were from Bioreclamation IVT (Westbury, NY) or Life Technologies (Carlsbad, CA).
as §2

[6] = test system: mitochondrial DNA-encoded cytochrome c oxidase (COX-1); experiment: Mitochondrial protein synthesis assay (COX-1, MitoBiogenesis in-cell ELISA) in PC-3 cells; format: cell-based, human
Protocol: (§1) PC-3 cells were treated with the compounds for 5 days and analyzed with the MitoTox MitoBiogenesis in-cell enzyme-linked immunosorbent assay (ELISA) kit (MitoSciences/Abcam, Eugene, Oregon) as described previously ([13]). The assay uses quantitative immunocytochemistry to measure the protein levels of nuclear DNA-encoded succinate dehydrogenase (SDH-A; complex II [succinate dehydrogenase]) and mitochondrial DNA-encoded cytochrome c oxidase (COX-1; complex IV [cytochrome c oxidase]) in cultured cells.

[7] = test system: nuclear DNA-encoded succinate dehydrogenase (SDH-A); experiment: Nuclear protein synthesis (SDH-A, MitoBiogenesis in-cell ELISA) in PC-3 cells; format: cell-based, human; details: 5 days, read-out: Mean CC50 ± SD causing General cellular toxicity: Protein synthesis
Protocol: as §1

[8] = test system: mitochondrial DNA in PC-3 cells and HepG2 cells; experiment: Mitochondrial DNA depletion, PC-3 versus HepG2 cells; format: cell-based, human; details: 10-day treatment
Description: Supplementary Fig. S1: PC-3 cells are more sensitive to ddC-induced mitochondria toxicity than HepG2 cells. (A) Levels of mitochondrial DNA in PC-3 cells (shown in […] and dashed line) and HepG2 cells (shown in • and solid line) after 10-day treatment; Levels of mitochondrial protein synthesis in PC-3 cells (B) and HepG2 cells (C) represented by COX-1 protein and nuclear protein synthesis represented by SDH-A protein after 5-day treatment. The levels of COX-1 (•), SDH-A ([…]), and ATP (<) are curve fitted to solid, dash, and dotted lines, […]

[9] = test system: T-cells (MT-4); experiment: Cytotoxicity in MT-4 T-cells, 5-day treatment; details: read-out: Mean CC50 ± SD in T-cells (MT-4); 5-day treatment
[10] = test system: Fibroblasts (MRC5); experiment: Cytotoxicity in MRC5 fibroblasts, 5-day treatment; details: read-out: Mean CC50 ± SD in Fibroblasts (MRC5); 5-day treatment
[11] = test system: Prostate cells (PC-3); experiment: Cytotoxicity / ATP level in PC-3 cells, 5-day treatment
Protocol: as §2
Cell Culture and Cytotoxicity Studies
(§3) The Huh-7 cells were maintained in growth medium containing Dulbecco's Modified Eagle
(§4) Medium (DMEM, Cellgro) supplemented with 1% Nonessential Amino Acids (NEAA, Cellgro,
(§5) Manassas, VA), 10% fetal bovine serum (FBS, HyClone, Logan, UT) and 1% Penicillin-
(§6) streptomycin-glutamate (PSG, Invitrogen, Carlsbad, CA). The cells were passaged twice weekly
(§7) and maintained at 90% confluence densities.
(§8) The HepG2 cells were maintained in Eagle’s Minimum Essential Medium (EMEM) from ATCC
(§9) (Manassas, VA) supplemented with 10% FBS, 100 units/mL penicillin and 100 µg/mL
(§10) streptomycin (P/S) (Gibco). The cells were passaged twice weekly and maintained at 90%
(§11) The PC-3 cells were maintained in Kaighn’s F12 medium (Gibco, Carlsbad, CA) supplemented
(§12) with 10% FBS (HyClone, Logan, UT), 100 units/mL penicillin and 100 µg/mL streptomycin
(§13) (P/S) (Gibco). The cells were passaged twice weekly and maintained at 90% confluence. Cells
(§14) between passages 4 and 15 were used in the assays.
(§15) The fibroblast cell line MRC-5 cell line derived from normal lung tissue, was purchased from
(§16) ATCC (Manassas, VA) and cultured in Minimum Essential Medium (MEM) (Cellgro, Manassas,
(§17) VA) supplemented with 10% FBS (HyClone, Logan, UT) and 1% PSG (Invitrogen). The cells
(§18) were passaged twice weekly and maintained at 90% confluence densities.

[12] = test system: HepG2 (galactose); experiment: Cytotoxicity in HepG2 (galactose) cells, 5-day treatment; details: read-out: Mean CC50 ± SD in Hepatic cells HepG2 (galactose); 5-day treatment
Protocol: as §2
Cell Culture and Cytotoxicity Studies
as §3, §4, §5, §6, §7, §8, §9, §10, §11, §12, §13, §14, §15, §16, §17, §18

[13] = test system: Huh7; experiment: Cytotoxicity in Huh7 cells, 5-day treatment (CellTiter Glo); details: read-out: Mean CC50 ± SD in Hepatic cells Huh7; 5-day treatment
Protocol: as §2
Cell Culture and Cytotoxicity Studies
as §3, §4, §5, §6, §7, §8, §9, §10, §11, §12, §13, §14, §15, §16, §17, §18

[14] = test system: mitochondrial spare respiratory capacity in PC-3 cells; experiment: Oxygen consumption rate / spare respiratory capacity in PC-3 cells; details: PC-3 cells

In the case of `O=c1[nH]cc(F)c(=O)[nH]1` [5-FU, 5-flurouracil], the CC50 [1] is reported as 3.7 ± 0.5 µM, the CC50 [2] is reported as 3.4 ± 0.8 µM and the CC50 [3] is reported as > 100 µM. The CC50 [4] was > 100 µM and the CC50 [5] was > 100 µM.
For `Nc1ccn([C@H]2CC[C@@H](CO)O2)c(=O)n1` [ddC, dideoxycytosine], the CC50 [1] was 1.9 ± 0.3 µM, the CC50 [2] was 9.7 ± 2 µM and the “fold greater sensitivity of PC-3 cells than HepG2 cells to reductions in COX-1 protein expression” value ([6]; 5-day treatment) was > 500 fold. The “selectivity of effect on COX-1 versus SDH-A and ATP levels” value ([6]; PC-3 cells, 5-day treatments) was “specifically inhibited COX-1 synthesis”, the CC50 ([6]; PC-3 cells, COX-1, 5 days, read-out: Mean CC50 ± SD causing Mitochondrial toxicity: Protein synthesis) was 0.19 ± 0.07 µM and the CC50 [7] was > 1 µM. The “fold greater sensitivity of PC-3 cells than HepG2 cells to mitochondrial DNA depletion” value [8] was > 30 fold, the CC50 [3] was > 100 µM and the CC50 [4] was > 100 µM. For the same compound, the CC50 [9] was > 89 µM, the CC50 [10] was > 89 µM and the CC50 [5] was > 100 µM. For the same compound, the CC50 ([11]; read-out: Mean CC50 ± SD causing General cellular toxicity: ATP level, PC-3 cells, 5 days) was 0.8 ± 0.21 µM, the CC50 ([11]; read-out: Mean CC50 ± SD in Prostate cells (PC-3), 5-day treatment) was 0.8 ± 0.21 µM and the CC50 [12] was > 89 µM. The CC50 [13] was > 89 µM, the “selectivity of effect on spare respiratory capacity versus DNA and ATP levels” value ([14]; 3-day treatments) was “specifically inhibited mitochondrial spare respiratory capacity” and the CC50 ([14]; read-out: Mean CC50 ± SD causing Mitochondrial toxicity: Respiration, spare respiratory capacity, 3 days) was 0.21 ± 0.03 µM.
